These results are taken from patent US11952328B2, “Selective ship inhibitors for treating disease” (THE RESEARCH FOUNDATION FOR THE STATE UNIVERSITY OF NEW YORK, priority 2018, dated 2024).

One assay deals with tumor. In words: Adoptive transfer of hematolymphoid cells from 3AC treated long-term survivors, survival after tumor challenge. Type of assay: in vivo, mice. The note with it: cells from tumor challenged, 3AC treated long-term surviving donor vs naive donor; recipients not treated. The text has this: To test for continued presence of such immunity, hematolymphoid cells were adoptively transferred from either a nave donor or from a tumor challenged, 3AC treated, long-term surviving (primed) donor into nave C57BL/6 hosts.

The subject of assay [1] is CT26 colon carcinoma cells. Description: Subcutaneous CT26 colon carcinoma model. Type of assay: in vivo, BALB/C mice. Here is the method:
FIG. 7A and FIG. 7B show CT26 (FIG. 7A) and MC-38 (FIG. 7B) viability following in vitro treatment with 3AC for 24 h at indicated doses. Relative viability is expressed as frequency compared to solvent only treated cells. Kill curve summarizes pooled data from three independent experiments using six replicate wells/concentration with mean±SEM indicated. BALB/C mice were challenged with subcutaneous injection of CT26 colon carcinoma cells in the right flank. Mice were treated with either 2 consecutive days of 3AC or vehicle control each week as in FIG. 4A. Tumor size at […] 28 days (FIG. 7C), and tumor weight on day 28 determined after dissection of tumor (FIG. 7E). […] C57BL/6 mice were challenged with subcutaneous injection of MC-38 colon carcinoma cells in the right flank. Mice were treated with either 2 consecutive days of SHIP inhibitor or vehicle control each week as in FIG. 4A. Tumor size at 14, 21 and 25 days (FIG. 7D), and tumor weight (FIG. 7F) on day 25 were determined after dissection of tumor. […] FIG. 7A (n=18 per group. One-way ANOVA with Dunnett's multiple comparisons. 0 μM vs. 20 μM Adjusted p value=0.0463. All other concentrations of SHIP inhibitor compared with solvent only N.S.). FIG. 7B (n=18 per group. One-way ANOVA with Dunnett's multiple comparisons. All concentrations of SHIP inhibitor compared with solvent only N.S.). FIGS. 7C-7F graphs represent data from one of two independent experiments. FIG. 7C (n=10. Day 14 p<0.0001, Unpaired t test with Welch's correction. Day 21 p<0.0001, two-tailed student's t-test. Day 28 p<0.0001, two-tailed Student's t-test). FIG. 7E (n=10. P<0.0001, two-tailed Student's t-test) FIG. 7D (n=10. Day 14 p=0.0005, two-tailed student's t-test. Day 21 p=0.0009, two-tailed Student's t-test. Day 25 p=0.0009, two-tailed student's t-test). FIG. 7F (n=10. P=0.0067, two-tailed student's t-test).
Colorectal cancer is the second leading cause of cancer mortality in the United States (Siegel, R. L. et al., Colorectal cancer statistics, 2017. CA Cancer J Clin. (2017)). […]

With `CC(C)CCC[C@@H](C)[C@H]1CC[C@H]2[C@@H]3CCC4C[C@H](N)CC[C@]4(C)[C@H]3CC[C@]12C` (stereo partly drawn) [Compound 3AC, 3-α-aminocholestane], in the assay on tumor, the “survival of recipients of primed hematolymphoid cells” value is listed as “significantly increased survival”. Moreover, the tumor weight entry in assay [1] (day 28, vs vehicle) is on record as “significant reduction”. Besides, the tumor size result in assay [1] (two consecutive days each week, days 14, 21, 28, vs vehicle) was “significant reduction”. In assay [1] (vs vehicle), the “histological analysis (H&E) of tumors” value was “prominent zones of tumor cell death”.
